# Data: PMC2063170, “A phase I clinical and pharmacokinetic study of the new topoisomerase inhibitor GI147211 given as a 72-h continuous infusion” (British Journal of Cancer, 1998)
# Where “and” joins values, the source holds several entries; their conditions need not be identical. Equal entries are not always repeated.
# Key:
# [1] = Phase I pharmacokinetics, 72-h continuous infusion, whole-blood and urine HPLC
# Description: Brrtish Joumal of Cancer(1998) 78(10). 1329-1336 @ 1998 Cancer Research Campaign A phase I clinical and pharmacokinetic study of the new topoisomerase inhibitor G1147211 given as a 72-h continuous infusion L Paz-Aresl*, R Kunkal 2, D DeMarial-3, J Cassidy' 4, M Alden3, P Beranek2, S Kaye', D Littlefield2, D Reilly3, S Depee2, P Wissel2, C Twelves' and P O'Dwyer3 CRC Department of Medical Oncology. University of Glasgow. Westem Infirmary Hospital. Glasgow Gll 6NT. UK; 2Glaxo Wellcome Research. Five Moore Drive. Research Triangle Park. NC 27709. USA; 'Fox Chase Cancer Center. 7701 Burholme Avenue. Philadelphia, PA 19111. USA: 4Thomas Jefferson University. Kimmel Cancer Institute. Bluemle Life Sciences Building. 233 S. 10th Street. Suite 502. Philadelphia. PA 19107. […] This study was designed to determine the maximum tolerated dose of Gl147211 as a 72-h infusion and to describe its pharmacokinetics and pharmacodynamics on this schedule. In a single-arm, rising-dose study in patients with advanced cancer, eight cohorts of three or more patients received 72-h infusions of G1147211 at doses ranging from 0.25 to 2.5 mg m-2 day-'. […] Whole-blood G1147211 lactone, total blood and total concentrations were measured during and over the 12 h following the infusion. […] Extensive phase 11 evaluation of this compound and further phase I trials evaluating more prolonged infusions are ongoing. Keywords: G1147211: GG211: camptothecin analogues: topoisomerase I inhibitor; phase I trial; pharmacokinetics: pharmacodynamics: continuous infusion GI 147211 (7-4 methyl piperazinomethilene)- 10.1 1 -ethylenedioxy - 20-(S camptothecin: Figure 1) is a totally synthetic analogue of camptothecin. a natural product isolated from Camptotheca acuminata (WAall et al. 1966: Emerson et al. 1995). […] The nuclear enzyvme DNA topoisomerase I. x hich relaxes DNA supercoils arising during, replication and gene tran- scription. has been identified as the specific targret of camptothecin (Hsianer and Liu. 1988: Wall and Wani. 1995).
# [2] = system: colon (HT29 and SW480), breast (MX 1), ovarian (SKOV3), prostate (PC3) and lung (H460) carcinoma xenografts; design: method as in Emerson et al. 1986. 1993. 1994. 1995; details: nude mice; ref Emerson et al. 1986. 1993. 1994. 1995; cited from earlier work
# [3] = system: neutrophils and platelets; assay: Pharmacodynamics: sigmoid Emax (Hill) fit of % decrease in neutrophils or platelets vs lactone Css; type: in vivo, patients; details: sigmoid Emax model
# Description: Brrtish Joumal of Cancer(1998) 78(10). 1329-1336 @ 1998 Cancer Research Campaign A phase I clinical and pharmacokinetic study of the new topoisomerase inhibitor G1147211 given as a 72-h continuous infusion L Paz-Aresl*, R Kunkal 2, D DeMarial-3, J Cassidy' 4, M Alden3, P Beranek2, S Kaye', D Littlefield2, D Reilly3, S Depee2, P Wissel2, C Twelves' and P O'Dwyer3 CRC Department of Medical Oncology. University of Glasgow. Westem Infirmary Hospital. Glasgow Gll 6NT. UK; 2Glaxo Wellcome Research. Five Moore Drive. Research Triangle Park. NC 27709. USA; 'Fox Chase Cancer Center. 7701 Burholme Avenue. Philadelphia, PA 19111. USA: 4Thomas Jefferson University. Kimmel Cancer Institute. Bluemle Life Sciences Building. 233 S. 10th Street. Suite 502. Philadelphia. PA 19107. […] This study was designed to determine the maximum tolerated dose of Gl147211 as a 72-h infusion and to describe its pharmacokinetics and pharmacodynamics on this schedule. In a single-arm, rising-dose study in patients with advanced cancer, eight cohorts of three or more patients received 72-h infusions of G1147211 at doses ranging from 0.25 to 2.5 mg m-2 day-'. […] Whole-blood G1147211 lactone, total blood and total concentrations were measured during and over the 12 h following the infusion. […] Extensive phase 11 evaluation of this compound and further phase I trials evaluating more prolonged infusions are ongoing. […]
# [4] = system: in vitro models; design: method as in Slichenmyer et al. 1993: Emerson et al. 1995; details: ref Slichenmyer et al. 1993: Emerson et al. 1995; cited from earlier work
smiles,measurement,setting,value
"CC[C@@]1(O)C(=O)OCc2c1cc1n(c2=O)Cc2c-1nc1cc3c(cc1c2CN1CCN(C)CC1)OCCO3 [GI147211, 7-4 methyl piperazinomethilene)-10.1 1-ethylenedioxy - 20-(S camptothecin]",Css,[1]; at doses of 1.2 mg m-2 day-1 and above,> 1 ng/mL
same,"Clearance, average","[1]; human, in vivo",1074 ml min-1 m-2
same,"Mean clearance values, range over the dose range","[1]; human, in vivo",776-1554 ml min-1 m-2
same,Mean terminal elimination half-life,"[1]; human, in vivo",7.5 h
same,"Renal clearance, average","[1]; human, in vivo",164 ml min-
same,"Clearance, mean","[1]; human, in vivo, 0.25 mg",776 ml min-1 m-2
same,"Clearance, mean","[1]; human, in vivo, 0.5 mg",864 ml min-1 m-2
same,"Clearance, mean","[1]; human, in vivo, 1 mg",826 ml min-1 m-2
same,"Half-life, mean","[1]; human, in vivo, 1 mg",7.9 h
same,"Clearance, mean","[1]; human, in vivo, 1.2 mg",1279 ml min-1 m-2
same,"Half-life, mean","[1]; human, in vivo, 1.2 mg",6.1 h
same,"Clearance, mean","[1]; human, in vivo, 1.5 mg",1046 ml min-1 m-2
same,"Half-life, mean","[1]; human, in vivo, 1.5 mg",7.4 h
same,"Clearance, mean","[1]; human, in vivo, 2 mg",1290 ml min-1 m-2
same,"Half-life, mean","[1]; human, in vivo, 2 mg",7.2 h
same,"Clearance, mean","[1]; human, in vivo, 2.5 mg",1554 ml min-1 m-2
same,"Half-life, mean","[1]; human, in vivo, 2.5 mg",8.5 h
same,Total drug recovered unaltered in urine,[1]; in vivo,~11%
same,Variation in Css with dose level,[1]; in vivo,two- to threefold
same,"Clearance, mean","[1]; lactone, 1.75 mg m-2 day-1, n=3",1138 ml min-1 m-2
same,"Css, mean","[1]; lactone, whole blood, 0.25 mg m-2 day-1, n=6",0.25 ng/mL
same,"Css, mean","[1]; lactone, whole blood, 1.0 mg m-2 day-1, n=5",0.86 ng/mL
same,"Css, mean","[1]; lactone, whole blood, 1.2 mg m-2 day-1, n=3",0.74 ng/mL
same,"Css, mean","[1]; lactone, whole blood, 1.5 mg m-2 day-1, n=10",1.09 ng/mL
same,"Css, mean","[1]; lactone, whole blood, 1.75 mg m-2 day-1, n=3",1.10 ng/mL
same,"Css, mean","[1]; lactone, whole blood, 2.0 mg m-2 day-1, n=11",1.09 ng/mL
same,"Css, mean","[1]; lactone, whole blood, 2.5 mg m-2 day-1, n=2",1.21 ng/mL
same,Mean fraction of drug excreted unchanged in the urine (fe),"[1]; total drug in urine, 15 subjects",0.114
same,Total blood concentrations (lactone plus carboxylate) relative to lactone concentrations,[1]; whole blood,approximately four
same,Anti-tumour activity in xenografts,[2],confirmed the anti-tumour actixitv
same,"EC50, half-maximal concentration (lactone Css) for % decrease in neutrophils (ANC)",[3],0.75 ng/mL and 0.750 ng/mL
same,"EC50, half-maximal concentration (lactone Css) for % decrease in platelets",[3],1.141 ng/mL
same,Activity relative to topotecan,[4],2-5 times more active
